{"source": "paper PMC7253723", "about": "“Chain-End Modifications and Sequence Arrangements of Antimicrobial Peptoids for Mediating Activity and Nano-Assembly” (Frontiers in Chemistry, 2020)", "key": {"[1]": {"test": "Critical aggregation concentration (CAC) Nile red fluorescence assay", "type": "physicochemical", "settings": "room temperature", "method": "Nile red (NR) fluorescence was used to measure critical aggregation concentration (CAC) for the synthesized lipopeptoids. Lipopeptoids were dissolved at 2.5 × 10^−2 to 1 wt.% in a dilute solution of Nile red (0.25 μg/100 mL, i.e. ~10 nM concentration) prepared in water. NR was excited at 552 nm and emission was recorded at room temperature in the range 550–750 nm using a 10.0 × 5.0 mm^2 quartz cell (Jasco spectrofluorimeter FP-6500). The intensity of the peak centered around 610 nm is shown in the data presented in Section results and discussion.\nWe first examined with a CAC assay whether coupling a hydrophobic tail to AMPMs and inserting the kk and EG2 components is a viable design for generating self-assembling lipopeptoids. The CAC measures the concentration above which hydrophobic pockets (e.g., lipophilic cores of micelles) are formed, and lower CACs indicate higher propensities of self-assembly. In our experiments, the CAC is indicated by an inflection in the increase in emission intensity of a lipophilic fluorophore tracer (Nile Red) that emits more strongly when partitioned into hydrophobic lower dielectric environments (see Figure S6 for an example analysis)."}, "[2]": {"test": "Analytical RP-HPLC elution (ACN %) as measure of hydrophobicity", "type": "physicochemical", "settings": "chromatographic, C18 column (250 × 4.6 mm Nucleosil), 30 min gradient 5–95% ACN in water with 0.1% TFA, 1 mL/min, used as measure of hydrophobicity", "method": "Peptoids were synthesized on resin manually or with an automated synthesizer (Prelude X, Gyros Protein Technologies) using a solid phase “submonomer” approach (Zuckermann et al., [1992]; Lau, [2014]; Lau et al., [2017]). Briefly, the Fmoc protected rink amide resin was deprotected with 20% piperidine for 20 min, applied twice. Each residue was added by treatment to a mixture of bromoacetic acid (20 times excess) and diisopropyl-carbodiimide (18.5 times excess) for 15 min, followed by a halo-substitution reaction with appropriate primary amine submonomers. For the attachment of a di ethylene glycol linker, Fmoc-amino-3,6 dioxaoctanoic acid (1.8 mmol), and equivalent moles of HBTU ((2-(1H-benzotriazol-1-yl)-1,1,3,3-tetramethyluronium hexafluorophosphate) were reacted with the terminal amino group in the presence of N,N-diisopropylethylamine (DIPEA, 2.7 mmol). This reaction was carried out for 2 h at 37°C and repeated a second time for 4 h, to ensure coupling. Like resin Fmoc deprotection, EG2 N-terminal Fmoc deprotection was achieved using 20% piperidine for 20 min, applied twice. Different chain lengths of saturated fatty acids, i.e., pelargonic acid (C8), lauric acid (C11), and palmitic acid (C15) were subsequently coupled using the HBTU amide coupling as reported previously (Lau et al., [2017]). After solid phase synthesis, the resin was cleaved and side chains were deprotected for 30 min using a standard TFA:TIPS:H2O cocktail (95:2.5:2.5 v/v/v). Excess TFA was removed using a rotary evaporator and the peptoid was precipitated from the oily product using diethyl ether. The collected material was dissolved in small amounts of 1:1 acetonitrile:water (ACN:H2O) to ease sample transfer, and further dried in a lyophilizer. Dried crude products were weighed and dissolved in ACN-H2O mixtures for preparative RP-HPLC (Dionex Ultimate 3000) with a C18 column (250 × 10 mm Phenomenex Jupiter). Fractions containing the pure product were identified by ESI-LC-MS (Agilent 1200 with a Poroshell C18 column coupled to an Agilent 6130 mass spectrometer) and by analytical RP-HPLC (Dionex P680) using a C18 column (250 × 4.6 mm “Nucleosil”) with a 30 min gradient of 5–95% acetonitrile (ACN) in water containing 0.1% TFA at 1 mL/min. The purified fractions of peptoids and lipopeptoids were later stored as aliquots at −20°C until further analysis."}, "[3]": {"tested_on": "Escherichia coli (ATCC 25922)", "type": "cell-based", "method": "(§1) Technical triplicates (n = 3) or more of samples at each concentration were analyzed."}, "[4]": {"tested_on": "Pseudomonas aeruginosa (PA01)", "type": "cell-based", "method": "as §1"}, "[5]": {"tested_on": "Staphylococcus aureus (NCTC 4135)", "type": "cell-based", "method": "as §1"}, "[6]": {"test": "Dynamic light scattering (DLS), hydrodynamic radius of nano-assemblies", "type": "physicochemical", "settings": "0.4 wt.% in deionized water, 0.22 μm filtered, 25°C, detection angle 90°", "method": "DLS measurements were carried out at room temperature (25°C) using an ALV/LSE-5004 instrument equipped with He-Ne laser (λ = 632.8 nm) at a detection angle of θ = 90° (Lau et al., [2017]). Samples were prepared at a concentration of 0.4 wt.% in deionized water (DI) water and further filtered using 0.22 μm pore size surfactant-free cellulose acetate (SFCA) syringe filters (Sigma Aldrich, UK) to avoid particulate contamination."}, "[7]": {"test": "Small angle X-ray scattering (SAXS), size of nano-assemblies", "type": "physicochemical", "settings": "1 wt.% peptoid solution, fitted", "method": "SAXS experiments were performed on the bioSAXS beamline B21 at Diamond Light Source, U.K., using a previously established protocol (Castelletto et al., [2019]). Briefly, solutions containing 1 wt.% peptoid were loaded into a set of PCR tubes fitted in the 96-well plate of the BioSAXS robot. From there, the robot loaded the solutions into a quartz capillary perpendicularly placed in the path of the incident X-ray beam. SAXS data, collected using a Dectris PILATUS 2 M detector at a fixed camera length of 3.9 m, is presented as scattering intensity vs. q = 4π sinθ /λ (2θ: scattering angle; wavelength: λ = 1 Å). See Supplementary Information for description of SAXS data fitting."}, "[8]": {"test": "Cryo-TEM, size of nano-assemblies", "type": "physicochemical", "settings": "vitrified sample", "method": "Sizes of selected lipopeptoid nano-assemblies were verified using a field emission cryo-electron microscope (JEOL JEM3200FSC), operating at 200 kV and at −187°C, configured in bright field mode and zero loss energy filtering (omega type) with a slit width of 20 eV. Sizes of selected lipopeptoids nano-assemblies were measured from photographs recorded using a Gatan Ultrascan 4000 CCD camera. Vitrified specimens were prepared on Quantifoil 3.5/1 holey carbon copper grids (hole size of 3.5 μm). The grids were first plasma cleaned using a Gatan Solarus 9500 plasma cleaner and then transferred into the environmental chamber of an automated FEI Vitrobot device at room temperature and 100% humidity. Thereafter, 3 μL of the sample solution was applied on the grid, which was blotted twice for 5 s and then vitrified in a 1:1 mixture of liquid ethane and propane at a temperature of −180°C. The grids with vitrified sample solution were maintained at liquid nitrogen temperature and then cryo-transferred to the microscope."}, "[9]": {"settings": "Nile red fluorescence (~10 nM NR in water), lipopeptoids 2.5 × 10^-2 to 1 wt.%, excitation 552 nm, peak around 610 nm, inflection in emission intensity"}, "[10]": {"settings": "MH broth microdilution (CLSI M07-A10), ~5 × 10^5 CFU/mL, overnight 37°C, OD 600 nm, MIC = concentration with OD halfway between minimum and maximum, sigmoidal fit ± SD, n = 3 or more, maximum tested 100 μM"}}, "note": "Several values for one entry are separate records, joined by “and”; a condition that tells them apart may be missing. Equal values may be shown once. Read-outs that look alike come from different tables or passages of the source. Square brackets hold non-standard residues; d marks the D form. Peptide text beside a SMILES is read from it. * marks the point of attachment. Palmitoyl = CCCCCCCCCCCCCCCC(=O)*; Nspe = C[C@H](NCC(=O)O)c1ccccc1; Lauroyl = CCCCCCCCCCCC(=O)*; AEEA = NCCOCCOCC(=O)O; Nlys = NCCCCNCC(=O)O"}
{"smiles": "CCCCCCCCCCCC(=O)NCCOCCOCC(=O)N(CCCCN)CC(=O)N(CC(=O)N(CC(=O)N(CCCCN)CC(=O)N(CC(=O)N(CC(=O)N(CCCCN)CC(=O)N(CCCCN)CC(N)=O)[C@@H](C)c1ccccc1)[C@@H](C)c1ccccc1)[C@@H](C)c1ccccc1)[C@@H](C)c1ccccc1", "note": "[C11-EG2-(kss)2-kk] ({Lauroyl-AEEA}-[Nlys][Nspe][Nspe][Nlys][Nspe][Nspe][Nlys][Nlys]-NH2)", "values": [{"measurement": "CAC", "setting": "[1]; [9]", "result": "198 µM and 200 ± 17 µM"}, {"measurement": "elution ACN % (RP-HPLC retention)", "setting": "[2]", "result": 52, "unit": "ACN %"}]}
{"smiles": "CCCCCCCCCCCC(=O)NCCOCCOCC(=O)N(CCCCN)CC(=O)N(CC(=O)N(CC(=O)N(CCCCN)CC(=O)N(CC(=O)N(CC(=O)N(CCCCN)CC(=O)N(CC(=O)N(CC(=O)N(CCCCN)CC(=O)N(CCCCN)CC(N)=O)[C@@H](C)c1ccccc1)[C@@H](C)c1ccccc1)[C@@H](C)c1ccccc1)[C@@H](C)c1ccccc1)[C@@H](C)c1ccccc1)[C@@H](C)c1ccccc1", "note": "[C11-EG2-(kss)3-kk] ({Lauroyl-AEEA}-[Nlys][Nspe][Nspe][Nlys][Nspe][Nspe][Nlys][Nspe][Nspe][Nlys][Nlys]-NH2)", "values": [{"measurement": "CAC", "setting": "[1]; [9]", "result": "310 ± 38", "unit": "µM"}, {"measurement": "CAC", "setting": "[1]; Nile red fluorescence in water, CAC expressed in mg/mL", "result": 0.52, "unit": "mg/mL"}, {"measurement": "Antimicrobial activity (MIC) E. coli", "setting": "[3]; [10]", "result": "3 ± 0.2", "unit": "µM"}, {"measurement": "Antimicrobial activity (MIC) P. aeruginosa", "setting": "[4]; PA01, MH broth microdilution (CLSI M07-A10), ~5 × 10^5 CFU/mL, overnight 37°C, OD 600 nm, MIC = concentration with OD halfway between minimum and maximum, sigmoidal fit ± SD, n = 3 or more, maximum tested 100 μM", "result": "15 ± 0.4", "unit": "µM"}, {"measurement": "Antimicrobial activity (MIC) S. aureus", "setting": "[5]; [10]", "result": "1 ± 0.1", "unit": "µM"}, {"measurement": "elution ACN % (RP-HPLC retention)", "setting": "[2]", "result": 54, "unit": "ACN %"}]}
{"smiles": "CCCCCCCCCCCCCCCC(=O)N(CCCCN)CC(=O)N(CC(=O)N(CC(=O)N(CCCCN)CC(=O)N(CC(=O)N(CC(=O)N(CCCCN)CC(=O)N(CC(=O)N(CC(=O)N(CCCCN)CC(=O)N(CC(=O)N(CC(=O)N(CCCCN)CC(=O)N(CCCCN)CC(N)=O)[C@@H](C)c1ccccc1)[C@@H](C)c1ccccc1)[C@@H](C)c1ccccc1)[C@@H](C)c1ccccc1)[C@@H](C)c1ccccc1)[C@@H](C)c1ccccc1)[C@@H](C)c1ccccc1)[C@@H](C)c1ccccc1", "note": "[C15-(kss)4-kk] (Palmitoyl-[Nlys][Nspe][Nspe][Nlys][Nspe][Nspe][Nlys][Nspe][Nspe][Nlys][Nspe][Nspe][Nlys][Nlys]-NH2)", "values": [{"measurement": "CAC", "setting": "[1]; [9]", "result": "304 µM and 300 ± 25 µM"}, {"measurement": "elution ACN % (RP-HPLC retention)", "setting": "[2]", "result": 66, "unit": "ACN %"}]}
{"smiles": "CCCCCCCCCCCCCCCC(=O)NCCOCCOCC(=O)N(CCCCN)CC(=O)N(CC(=O)N(CC(=O)N(CCCCN)CC(=O)N(CC(=O)N(CC(=O)N(CCCCN)CC(=O)N(CC(=O)N(CC(=O)N(CCCCN)CC(=O)N(CC(=O)N(CC(=O)N(CCCCN)CC(=O)N(CCCCN)CC(N)=O)[C@@H](C)c1ccccc1)[C@@H](C)c1ccccc1)[C@@H](C)c1ccccc1)[C@@H](C)c1ccccc1)[C@@H](C)c1ccccc1)[C@@H](C)c1ccccc1)[C@@H](C)c1ccccc1)[C@@H](C)c1ccccc1", "note": "[C15-EG2-(kss)4-kk] ({Palmitoyl-AEEA}-[Nlys][Nspe][Nspe][Nlys][Nspe][Nspe][Nlys][Nspe][Nspe][Nlys][Nspe][Nspe][Nlys][Nlys]-NH2)", "values": [{"measurement": "Antimicrobial activity (MIC) E. coli", "setting": "[3]", "result": "44 ± 5", "unit": "µM"}, {"measurement": "Antimicrobial activity (MIC) P. aeruginosa", "setting": "[4]", "result": ">100", "unit": "µM"}, {"measurement": "Antimicrobial activity (MIC) S. aureus", "setting": "[5]", "result": "36 ± 5", "unit": "µM"}, {"measurement": "Hydrodynamic radius RH (DLS)", "result": 45, "unit": "nm"}]}
{"smiles": "CCCCCCCCCCCCCCCC(=O)NCCOCCOCC(=O)N(CCCCN)CC(=O)N(CC(=O)N(CC(=O)N(CCCCN)CC(=O)N(CC(=O)N(CC(=O)N(CCCCN)CC(=O)N(CC(=O)N(CC(=O)N(CCCCN)CC(=O)N(CC(=O)N(CC(N)=O)[C@@H](C)c1ccccc1)[C@@H](C)c1ccccc1)[C@@H](C)c1ccccc1)[C@@H](C)c1ccccc1)[C@@H](C)c1ccccc1)[C@@H](C)c1ccccc1)[C@@H](C)c1ccccc1)[C@@H](C)c1ccccc1", "note": "[C15-EG2-(kss)4] ({Palmitoyl-AEEA}-[Nlys][Nspe][Nspe][Nlys][Nspe][Nspe][Nlys][Nspe][Nspe][Nlys][Nspe][Nspe]-NH2)", "values": [{"measurement": "CAC", "setting": "[1]; [9]", "result": "38 µM and 38 ± 3 µM"}, {"measurement": "CAC", "setting": "[1]; Nile red fluorescence in water, CAC expressed in wt.%", "result": 0.0075, "unit": "wt.%"}, {"measurement": "elution ACN % (RP-HPLC retention)", "setting": "[2]", "result": 82, "unit": "ACN %"}, {"measurement": "hydrodynamic radius (RH)", "setting": "[6]", "result": "ca. 50 nm"}, {"measurement": "radius of nano-assemblies (SAXS)", "setting": "[7]", "result": "24 ± 5", "unit": "nm"}, {"measurement": "diameter of smallest non-compact aggregates (TEM)", "setting": "[8]", "result": "ca. 5 nm"}]}
